Results taken from patent US7960365B2, “Compounds with medicinal effects due to interaction with the glucocorticoid receptor” (N.V. Organon, priority 2006, dated 2011).

Target: T1, recombinant human-GR (GR) (Homo sapiens, UniProt P04150)
T1 construct: purchased PanVera
T1 sequence (P04150 1-777): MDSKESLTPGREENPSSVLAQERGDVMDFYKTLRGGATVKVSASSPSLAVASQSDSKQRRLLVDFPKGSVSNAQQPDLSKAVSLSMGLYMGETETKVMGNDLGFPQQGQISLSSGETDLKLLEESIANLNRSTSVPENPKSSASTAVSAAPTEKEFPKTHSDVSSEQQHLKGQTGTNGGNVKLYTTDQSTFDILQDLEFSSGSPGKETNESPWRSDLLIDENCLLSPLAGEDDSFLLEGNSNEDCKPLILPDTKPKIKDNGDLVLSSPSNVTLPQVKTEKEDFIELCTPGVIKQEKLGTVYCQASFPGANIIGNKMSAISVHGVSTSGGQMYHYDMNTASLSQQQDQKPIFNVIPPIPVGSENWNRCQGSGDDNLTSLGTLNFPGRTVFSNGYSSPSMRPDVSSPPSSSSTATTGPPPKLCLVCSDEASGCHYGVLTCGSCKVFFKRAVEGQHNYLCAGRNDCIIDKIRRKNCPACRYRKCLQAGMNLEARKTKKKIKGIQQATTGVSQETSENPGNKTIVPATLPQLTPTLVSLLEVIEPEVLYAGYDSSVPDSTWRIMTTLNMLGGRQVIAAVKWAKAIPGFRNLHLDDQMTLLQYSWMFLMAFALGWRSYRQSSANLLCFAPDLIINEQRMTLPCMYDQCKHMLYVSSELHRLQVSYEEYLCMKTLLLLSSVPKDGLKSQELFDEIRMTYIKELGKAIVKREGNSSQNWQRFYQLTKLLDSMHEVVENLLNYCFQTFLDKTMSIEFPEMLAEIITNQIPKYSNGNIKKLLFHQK
Test: Glucocorticoid Receptor Competitor Assay kit (PanVera), fluorescence polarisation competition binding
Details: fluormone GS1 1 nM, GR 4 nM, 90 minutes at room temperature
Method: The affinity of compounds was tested using a Glucocorticoid Receptor Competitor Assay kit (PanVera®). Components of the kit were thawed from −80° C. on ice (Fluormone GS1, recombinant human-GR (GR)) or at room temperature (GR screening buffer, stabilising peptide and DTT). 10 mM test compounds were manually diluted to 20 μM then serially diluted to a final concentration range of 10 μM to 0.1 nM using the BioMek 2000 (Beckman-Coulter) into a black walled 384 welled plate (Matrix technologies). In the following order: fluormone GS1 (1 nM final concentration) is added to all wells excluding the buffer control wells, GR (4 nM final concentration) is added to all wells except minimum and buffer control wells, cortisol (10 μM final concentration) is added to fluormone GS1 control wells only, buffer is added to all wells to a final volume of 40 μl. The plate is covered and incubated at room temperature with agitation for 90 minutes. Readings were taken using the Analyst (LJL) in fluorescence polarisation reading mode. The MilliP ratio is calculated from cps readings obtained in parallel and perpendicular mode. The percent effect of the bound ligand is calculated at each concentration and the dose response curves plotted allowing the EC50 to be calculated. […]

- EC50: 10 nM
SMILES: CC#C[C@]1(O)CC[C@H]2[C@@H]3CCC4=CC(=O)CCC4=C3[C@@H](c3ccc4c(c3)OCO4)C[C@@]21C [(11beta, 17beta)-11-(1,3-benzodioxol-5-yl)-17-hydroxy-17-(1-propynyl)estra-4,9-dien-3-one]
